Activity calls are given as the source filed them. No cut-off for these calls is given here.
How the values were obtained:
Cercospora beticola [1] = experiment: Ratio of EC50 for Benzimidalzole-resistant Cercospora beticola isolate 6-13 to EC50 for Benzimidalzole-resistant Cercospora beticola isolate 1-3; type: functional
Cercospora beticola [2] = experiment: Ratio of EC50 for Benzimidalzole-sensitive Cercospora beticola isolate 24-3 to EC50 for Benzimidalzole-resistant Cercospora beticola isolate 1-3; type: functional
Cercospora beticola [3] = experiment: Antifungal activity against Benzimidalzole-resistant Cercospora beticola isolate Cb-19 infected in sugar beet seedlings at 12.5 ppm treated as foliar application 7 days prior to inoculation; type: functional
Botrytis cinerea [4] = experiment: Antifungal activity against Benzimidalzole-resistant Botryotinia fuckeliana isolate Bc-44 infected kidney bean leaves at 50 ppm applied as soil drench 3 days prior to inoculation; type: functional
Cercospora beticola [5] = experiment: Ratio of EC50 for […] to EC50 for Benzimidalzole-resistant Cercospora beticola isolate 49-4; type: functional
Cercospora beticola [6] = experiment: Antifungal activity against Benzimidalzole-sensitive Cercospora beticola isolate 24-3 at 0.001 to 1000 ppm after 14 days by agar dilution method; type: functional, organism-based
Cercospora beticola [7] = experiment: Ratio of EC50 for Benzimidalzole-sensitive Cercospora beticola isolate 24-3 to EC50 for Benzimidalzole-resistant Cercospora beticola isolate 18-2; type: functional
Botrytis cinerea [8] = experiment: Ratio of EC50 for Benzimidalzole-sensitive Botryotinia fuckeliana isolate Bc-3 to EC50 for Benzimidalzole-resistant Botryotinia fuckeliana isolate Bc-44; type: functional
Cercospora beticola [9] = experiment: Ratio of EC50 for Benzimidalzole-resistant Cercospora beticola isolate 18-11 to EC50 for Benzimidalzole-resistant Cercospora beticola isolate 18-2; type: functional
Botrytis cinerea [10] = experiment: Antifungal activity against Benzimidalzole-resistant Botryotinia fuckeliana isolate Bc-44 infected kidney bean leaves at 3.1 ppm 24 hr post-infection measured after 3 days; type: functional
Cercospora beticola [11] = experiment: Ratio of EC50 for Benzimidalzole-sensitive Cercospora beticola isolate 24-3 to EC50 for Benzimidalzole-resistant Cercospora beticola isole 28-8; type: functional
Botrytis cinerea [12] = experiment: Antifungal activity against Benzimidalzole-resistant Botryotinia fuckeliana isolate Bc-44 infected kidney bean leaves at 12.5 ppm treated as foliar application followed by incubation for 7 days in green house condition; type: functional
Cercospora beticola [13] = experiment: Antifungal activity against Benzimidalzole-resistant Cercospora beticola isolate 18-2 infected in compound-treated sugar beet seedlings at 3.1 ppm after 12 days; type: functional
Cercospora beticola [14] = experiment: Ratio of EC50 for Benzimidalzole-resistant Cercospora beticola isolate 6-13 to EC50 for Benzimidalzole-resistant Cercospora beticola isolate 18-2; type: functional
Botrytis cinerea [15] = experiment: Antifungal activity against Benzimidalzole-resistant Botryotinia fuckeliana isolate Bc-44 infected compound-treated kidney bean leaves at 12.5 ppm after 4 days; type: functional
Cercospora beticola [16] = experiment: Antifungal activity against Benzimidalzole-resistant Cercospora beticola isolate Cb-19 infected in sugar beet seedlings at 50 ppm treated as foliar application 7 days prior to inoculation; type: functional
Botrytis cinerea [17] = experiment: Antifungal activity against Benzimidalzole-sensitive Botryotinia fuckeliana isolate Bc-9 infected compound-treated kidney bean leaves at 50 ppm after 4 days; type: functional
Cercospora beticola [18] = experiment: Antifungal activity against Benzimidalzole-resistant Cercospora beticola isolate Cb-19 infected in compound-treated sugar beet seedlings at 3.1 ppm after 12 days; type: functional
Cercospora beticola [19] = experiment: Ratio of EC50 for Benzimidalzole-sensitive Cercospora beticola isolate 24-3 to EC50 for Benzimidalzole-resistant Cercospora beticola isole Cb-19; type: functional
Cercospora beticola [20] = experiment: Ratio of EC50 for Benzimidalzole-sensitive Cercospora beticola isolate 24-3 to EC50 for Benzimidalzole-resistant Cercospora beticola isolate 49-4; type: functional
Cercospora beticola [21] = experiment: Antifungal activity against Benzimidalzole-sensitive Cercospora beticola isolate 18-1 at 0.001 to 1000 ppm after 14 days by agar dilution method; type: functional, organism-based
Botrytis cinerea [22] = experiment: Ratio of EC50 for Benzimidalzole-sensitive Botryotinia fuckeliana isolate Bc-9 to EC50 for Benzimidalzole-resistant Botryotinia fuckeliana isolate Bc-44; type: functional
Cercospora beticola [23] = experiment: Antifungal activity against Benzimidalzole-resistant Cercospora beticola isolate 18-11 at 0.001 to 1000 ppm after 14 days by agar dilution method; type: functional, organism-based
Cercospora beticola [24] = experiment: Ratio of EC50 for Benzimidalzole-sensitive Cercospora beticola isolate 22-5 to EC50 for Benzimidalzole-resistant Cercospora beticola isolate 18-2; type: functional
Cercospora beticola [25] = experiment: Antifungal activity against Benzimidalzole-resistant Cercospora beticola isolate 18-2 infected in compound-treated sugar beet seedlings at 200 ppm after 12 days; type: functional
Botrytis cinerea [26] = experiment: Antifungal activity against Benzimidalzole-resistant Botryotinia fuckeliana isolate Bc-44 infected kidney bean leaves at 200 ppm 24 hr post-infection measured after 3 days; type: functional
Cercospora beticola [27] = experiment: Ratio of EC50 for Benzimidalzole-sensitive Cercospora beticola isolate 18-1 to EC50 for Benzimidalzole-resistant Cercospora beticola isolate 1-3; type: functional
Botrytis cinerea [28] = experiment: Ratio of EC50 for Benzimidalzole-resistant Botryotinia fuckeliana isolate Bc-20 to EC50 for Benzimidalzole-resistant Botryotinia fuckeliana isolate Bc-31; type: functional
Cercospora beticola [29] = experiment: Ratio of EC50 for Benzimidalzole-resistant Cercospora beticola isolate 20-2 to EC50 for Benzimidalzole-resistant Cercospora beticola isolate 18-2; type: functional
Cercospora beticola [30] = experiment: Ratio of EC50 for Benzimidalzole-sensitive Cercospora beticola isolate 18-1 to EC50 for Benzimidalzole-resistant Cercospora beticola isolate 18-2; type: functional
Cercospora beticola [31] = experiment: Ratio of EC50 for Benzimidalzole-sensitive Cercospora beticola isolate 18-1 to EC50 for Benzimidalzole-resistant Cercospora beticola isole 28-8; type: functional
Botrytis cinerea [32] = experiment: Antifungal activity against Benzimidalzole-resistant Botryotinia fuckeliana isolate Bc-44 infected kidney bean leaves at 200 ppm treated as foliar application followed by incubation for 7 days in green house condition; type: functional
Cercospora beticola [33] = experiment: Antifungal activity against Benzimidalzole-resistant Cercospora beticola isolate 18-2 at 0.001 to 1000 ppm after 14 days by agar dilution method; type: functional, organism-based
Cercospora beticola [34] = experiment: Ratio of EC50 for Benzimidalzole-resistant Cercospora beticola isolate 18-11 to EC50 for Benzimidalzole-resistant Cercospora beticola isolate 49-4; type: functional
Botrytis cinerea [35] = experiment: Antifungal activity against Benzimidalzole-resistant Botryotinia fuckeliana isolate Bc-44 infected kidney bean leaves at 12.5 ppm 24 hr post-infection measured after 3 days; type: functional
Cercospora beticola [36] = experiment: Antifungal activity against Benzimidalzole-resistant Cercospora beticola isolate Cb-19 infected in sugar beet seedlings at 3.1 ppm treated as foliar application 7 days prior to inoculation; type: functional
Cercospora beticola [37] = experiment: Antifungal activity against Benzimidalzole-resistant Cercospora beticola isolate 28-8 at 0.001 to 1000 ppm after 14 days by agar dilution method; type: functional, organism-based
Cercospora beticola [38] = experiment: Ratio of EC50 for Benzimidalzole-sensitive Cercospora beticola isolate 18-1 to EC50 for Benzimidalzole-resistant Cercospora beticola isolate 49-4; type: functional
Cercospora beticola [39] = experiment: Ratio of EC50 for Benzimidalzole-sensitive Cercospora beticola isolate 22-5 to EC50 for Benzimidalzole-resistant Cercospora beticola isole 28-8; type: functional
Botrytis cinerea [40] = experiment: Antifungal activity against Benzimidalzole-resistant Botryotinia fuckeliana isolate Bc-20 at 0.001 to 1000 ppm after 3 days by agar dilution method; type: functional, organism-based
Cercospora beticola [41] = experiment: Antifungal activity against Benzimidalzole-resistant Cercospora beticola isolate Cb-19 infected in compound-treated sugar beet seedlings at 50 ppm after 12 days; type: functional
Cercospora beticola [42] = experiment: Antifungal activity against Benzimidalzole-resistant Cercospora beticola isolate Cb-19 infected in sugar beet seedlings at 200 ppm applied as soil drench 3 days prior to inoculation; type: functional
Botrytis cinerea [43] = experiment: Antifungal activity against Benzimidalzole-resistant Botryotinia fuckeliana isolate Bc-40 at 0.001 to 1000 ppm after 3 days by agar dilution method; type: functional, organism-based

`C#CCOc1c(Cl)cc(N/C=N/OC)cc1Cl` was tested, and the Ratio EC50 (Cercospora beticola [1]) was > 1000, the Ratio EC50 (Cercospora beticola [2]) was > 1000 and the Activity (Cercospora beticola [3]) was 93%. The Activity (Botrytis cinerea [4]) was 0%, the Ratio EC50 (Cercospora beticola [5]) was > 1000 and the Activity (Cercospora beticola [6]) was “inactive”. For the same compound, the Ratio EC50 (Cercospora beticola [7]) was > 1000, the Ratio EC50 (Botrytis cinerea [8]) was > 1000 and the Ratio EC50 (Cercospora beticola [9]) was > 1000. For the same compound, the Activity (Botrytis cinerea [10]) was 73%, the Ratio EC50 (Cercospora beticola [11]) was > 1000 and the Activity (Botrytis cinerea [12]) was 53%. For the same compound, the Activity (Cercospora beticola [13]) was 91%, the Ratio EC50 (Cercospora beticola [14]) was > 1000 and the Activity (Botrytis cinerea [15]) was 100%. For the same compound, the Activity (Cercospora beticola [16]) was 99%, the Activity (Botrytis cinerea [17]) was 5% and the Activity (Cercospora beticola [18]) was 91%. The Ratio EC50 (Cercospora beticola [19]) was > 1000, the Ratio EC50 (Cercospora beticola [20]) was > 1000 and the Activity (Cercospora beticola [21]) was “inactive”. For the same compound, the Ratio EC50 (Botrytis cinerea [22]) was > 1000, the Activity (Cercospora beticola [23]) was “inactive” and the Ratio EC50 (Cercospora beticola [24]) was > 1000. The Activity (Cercospora beticola [25]) was 100%, the Activity (Botrytis cinerea [26]) was 100% and the Ratio EC50 (Cercospora beticola [27]) was > 1000. For the same compound, the Ratio EC50 (Botrytis cinerea [28]) was > 1000, the Ratio EC50 (Cercospora beticola [29]) was > 1000 and the Ratio EC50 (Cercospora beticola [30]) was > 1000. For the same compound, the Ratio EC50 (Cercospora beticola [31]) was > 1000, the Activity (Botrytis cinerea [32]) was 100% and the Activity (Cercospora beticola [33]) was “Active”. For the same compound, the Ratio EC50 (Cercospora beticola [34]) was > 1000, the Activity (Botrytis cinerea [35]) was 93% and the Activity (Cercospora beticola [36]) was 40%. For the same compound, the Activity (Cercospora beticola [37]) was “Active”, the Ratio EC50 (Cercospora beticola [38]) was > 1000 and the Ratio EC50 (Cercospora beticola [39]) was > 1000. For the same compound, the Activity (Botrytis cinerea [40]) was “inactive”, the Activity (Cercospora beticola [41]) was 100% and the Activity (Cercospora beticola [42]) was 72%. The Activity (Botrytis cinerea [43]) was “inactive”.

`C#CCOc1cc(N/C=N/OC)cc(Cl)c1OCC#C` was tested, and the Ratio EC50 (Cercospora beticola [1]) was > 1000, the Ratio EC50 (Cercospora beticola [2]) was > 1000 and the Activity (Cercospora beticola [3]) was 80%. The Activity (Botrytis cinerea [4]) was 6%, the Ratio EC50 (Cercospora beticola [5]) was > 1000 and the Activity (Cercospora beticola [6]) was “inactive”. The Ratio EC50 (Cercospora beticola [7]) was > 1000, the Ratio EC50 (Botrytis cinerea [8]) was > 1000 and the Ratio EC50 (Cercospora beticola [9]) was > 1000. The Activity (Botrytis cinerea [10]) was 91%, the Ratio EC50 (Cercospora beticola [11]) was > 1000 and the Activity (Botrytis cinerea [12]) was 63%. For the same compound, the Activity (Cercospora beticola [13]) was 84%, the Ratio EC50 (Cercospora beticola [14]) was > 1000 and the Activity (Botrytis cinerea [15]) was 100%. The Activity (Cercospora beticola [16]) was 100%, the Activity (Botrytis cinerea [17]) was 0% and the Activity (Cercospora beticola [18]) was 94%. The Ratio EC50 (Cercospora beticola [19]) was > 1000, the Ratio EC50 (Cercospora beticola [20]) was > 1000 and the Activity (Cercospora beticola [21]) was “inactive”. For the same compound, the Ratio EC50 (Botrytis cinerea [22]) was > 1000, the Activity (Cercospora beticola [23]) was “inactive” and the Ratio EC50 (Cercospora beticola [24]) was > 1000. The Activity (Cercospora beticola [25]) was 100%, the Activity (Botrytis cinerea [26]) was 100% and the Ratio EC50 (Cercospora beticola [27]) was > 1000. For the same compound, the Ratio EC50 (Botrytis cinerea [28]) was > 1000, the Ratio EC50 (Cercospora beticola [29]) was > 1000 and the Ratio EC50 (Cercospora beticola [30]) was > 1000. The Ratio EC50 (Cercospora beticola [31]) was > 1000, the Activity (Botrytis cinerea [32]) was 100% and the Activity (Cercospora beticola [33]) was “Active”. The Ratio EC50 (Cercospora beticola [34]) was > 1000, the Activity (Botrytis cinerea [35]) was 100% and the Activity (Cercospora beticola [36]) was 58%. For the same compound, the Activity (Cercospora beticola [37]) was “Active”, the Ratio EC50 (Cercospora beticola [38]) was > 1000 and the Ratio EC50 (Cercospora beticola [39]) was > 1000. The Activity (Botrytis cinerea [40]) was “inactive”, the Activity (Cercospora beticola [41]) was 100% and the Activity (Cercospora beticola [42]) was 94%. The Activity (Botrytis cinerea [43]) was “inactive”.
